Key:
[1] = test system: healthy subjects; assay: Toronto Empathy Questionnaire (TEQ); type: in vivo, human
From the text: In some embodiments, the Toronto Empathy Questionnaire (TEQ) is utilized to evaluate the safety and/or efficacy of psilocybin. The TEQ represents empathy as a primarily emotional process. […] The TEQ is a brief, reliable and valid instrument for the assessment of empathy. In some embodiments, after treating according to the methods of the disclosure, a subject's TEQ score increases by about 5%, about 10%, about 15%, about 20%, about 25%, about 30%, about 35%, about 40%, about 45%, about 50%, about 55%, about 60%, about 65%, about 70%, about 75%, about 80%, about 85%, about 90%, about 95%, or about 100%, about 110%, about 120%, about 130%, about 140%, about 150%, about 160%, about 170%, about 180%, about 190%, about 200%, about 210%, about 220%, about 230%, about 240%, about 250%, about 260%, about 270%, about 280%, about 290%, or about 300%, or more, compared to prior to treatment.
The following list of outcome measures are non-exhaustive. • a. The short-term change from Baseline (Day −1 [Visit 2]) to Day 7 (Visit 5) in cognitive measures of attention, spatial and working memory and executive function was measured by a composite score of the CANTAB Panel (Spatial Working Memory [SWM], Rapid Visual Information Processing [RVP], Paired Associates Learning [PAL]). • b. The short-term change from Baseline (Day −1 [Visit 2]) to Day 7 (Visit 5) in Social Cognition Panel scales (Pictorial Empathy Test [PET], Reading the Mind in the Eyes Test [RMET], Toronto Empathy Questionnaire [TEQ], Social Value Orientation [SVO], Scale of Social Responsibility [SSR]). • c. The change from Baseline (Day −1 [Visit 2]) to Day 28 (Visit 6) in cognitive measures of attention, spatial and working memory and executive function as measured by a composite score of the CANTAB Panel (SWM, RVP, PAL). • d. The long-term change from Baseline (Day −1 [Visit 2]) to Day 84 (Visit 7) in Social Cognition Panel scales (PET, RMET, TEQ, SVO, SSR). • e. Dose-related differences between cognitive effects of psilocybin at Baseline (Day −1 [Visit 2]), Day 7 (Visit 5) and Day 28 (Visit 6), as measured by a composite score of the CANTAB Panel (SWM, RVP, PAL). • f. Dose-related differences between psychological effects of psilocybin at Baseline (Day −1 [Visit 2]), Day 7 (Visit 5) and Day 84 (Visit 7), as measured by Social Cognition Panel scales (PET, RMET, TEQ, SVO, SSR). • g. Differences in cognitive effects of psilocybin between psilocybin-naïve and experienced subjects at Baseline (Day −1 [Visit 2]), Day 7 (Visit 5) and Day 28 (Visit 6), as measured by a composite score of the CANTAB Panel (SWM, RVP, PAL). • h. Differences in Positive and Negative Affect Schedule (PANAS) after study drug administration on Day 0 (Visit 3). • i. Differences between psilocybin and placebo in the Emotion Recognition Test (ERT), Intra-Extra Dimensional Set Shift (IED), One Touch Stockings (OTS), Verbal Fluency and Digit Span Forward at Day 7 (Visit 5). • j. A composite score of the CANTAB Panel, including the following tests: • i. Spatial Working Memory (SWM) (performed at Visit 2, Visit 5, and Visit 6). • ii. Rapid Visual Information Processing (RVP) (performed at Visit 2, Visit 5, and Visit 6). • iii. Paired Associates Learning (PAL) (performed at Visit 2, Visit 5, and Visit 6). • k. Cognitive Flexibility Panel • i. Emotion Recognition Task (ERT) (performed at Visit 5). • ii. Intra-Extra Dimensional Set Shift (IED) (performed at Visit 5). • iii. One Touch Stockings (OTS) (performed at Visit 5). • iv. Verbal Fluency (performed at Visit 5). • v. Digit Span Forward (performed at Visit 5). • l. Five Dimension Altered States of Consciousness questionnaire (5D-ASC) (performed at Visit 3). • m. PANAS (performed at Visit 2 and Visit 3). • n. NEO-Five Factor Inventory (NEO-FFI) (performed at Visit 2, Visit 5, and Visit 7). • o. Symptom Checklist-90 item (SCL-90) (performed at Visit 2, Visit 5, and Visit 7). • p. […]

[2] = test system: subjects with chronic cluster headaches (CCH); assay: Chronic cluster headaches study (headache logs); type: in vivo, human; settings: 0.14 mg/kg perorally x3; same subject
From the text: The study took place over a 10 week period which consisted of a baseline observation period, 3 psilocybin sessions, and a follow-up period in subjects with CCH (FIG. 27). Throughout the course of the study, subjects completed questionnaires and headache logs in order to access headache frequency, duration, and severity.
Before the beginning of the study, subjects taking prophylactic medication underwent a 2 week wash-out period to eliminate medication. Subjects then began a baseline observation period lasting 4 weeks during which the subjects received a functional MRI (magnetic resonance imaging) scan. After the observation period, subjects were perorally administered their first dose of 0.14 mg/kg psilocybin. Blood samples were collected during the initial dosing session to establish psilocin plasma concentrations. Over the next two weeks, subjects were administered two additional doses of psilocybin with each dose administered one week apart. The last psilocybin dose was followed by 4 weeks of observation that included a functional MRI scan one week after the last psilocybin dose. Subjects were also contacted 6 and 12 months after the last psilocybin dose to gain information about the duration of potential remission periods. All regular acute treatments were permitted during the study period and recorded in the headache diary. […]

SMILES: CN(C)CCc1c[nH]c2cccc(OP(=O)(O)O)c12 [psilocybin]
- TEQ change from baseline, LS mean difference Psilocybin 10 mg - Placebo ([1]; Day 7, MMRM): 0.1
- TEQ change from baseline, LS mean difference Psilocybin 25 mg - Placebo ([1]; Day 7, MMRM): 0.2
- TEQ change from baseline, LS mean difference Psilocybin 25 mg-10 mg ([1]; Day 7, MMRM): 0.1
- TEQ change from baseline, LS mean difference Psilocybin 10 mg - Placebo ([1]; Day 84, MMRM): 0.1
- TEQ change from baseline, LS mean difference Psilocybin 25 mg - Placebo ([1]; Day 84, MMRM): 0.1
- TEQ change from baseline, LS mean difference Psilocybin 25 mg-10 mg ([1]; Day 84, MMRM): 0.0
- TEQ change from baseline, LS mean ([1]; Psilocybin 10 mg, Day 84, MMRM): −0.1
- TEQ change from baseline, LS mean ([1]; Psilocybin 25 mg, Day 84, MMRM): −0.0
- Cluster headache with pain greater than normal [2]: at least one very painful cluster headache

Source: patent publication US11865126B2, “Method for treating anxiety disorders, headache disorders, and eating disorders with psilocybin” (priority 2019, dated 2024)
